The test system of one data set is A. baumannii ATCC 19606. How it is done: (§1) Antimicrobial susceptibility was evaluated by the broth microdilution assay to determine the MIC as already described by Buommino et al.[71] The bacterial suspension in Muller Hinton (MH) at a concentration of 2 × 10^6 cell/mL in the mid-log phase was prepared. Aliquots of 50 μL of the bacterial suspension were added to 50 μL of MH containing serial 2-fold dilutions of the peptides (from 100 to 0.78 μM) that were previously prepared in a 96-well plate. […] Each measurement was performed in triplicate. MICs were obtained from three identical readings of four independent experiments. The antibiofilm activity of the tested peptides was evaluated as reported by Casciaro et al.[72] Microbial culture was grown at 37 °C until it reached an optical density (OD) of 0.8 (λ = 590 nm), and then it was diluted to a cell density of 1 × 10^6 colony-forming units (CFUs)/mL.

In a further data set the test system is E. coli ATCC 25922. How it is done: as §1
The subject of the next data set is P. aeruginosa ATCC 25853. How it is done:
as §1

The subject of the next data set is S. aureus ATCC 25923. The procedure:
as §1

The test system of a further data set is S. aureus MDR #1. How it is done: as §1
The test system of another data set is S. aureus MDR #2. The procedure: as §1
The test system of another data set is S. aureus MDR #3. How it is done:
as §1

For a further data set, the system named is S. aureus MDR #4. How it is done: as §1
Data set [1] relates to S. epidermidis ATCC 12228. The procedure:
as §1

Another data set relates to HaCaT cells. Also noted: method as in PMID 26162435. The note with it: previously described; cited from earlier work.
A short description of the next data set: in vitro. In kind it is in vitro ADME, bovine. The note with it: serum. The procedure:
The proteolytic stability of peptide 2 was evaluated in bovine serum (ThermoFisher Scientific, Milan, Italy). Peptide 2 was dissolved in sterile water (200 μM) and incubated with 50% bovine serum at 37 °C. The reaction mixture was incubated at different time intervals (1, 3, 4, 5, 16, and 24 h). An aliquot of the mixture was taken at each pre-established time point and MeCN was added to precipitate serum proteins. Then, the mixture was cooled to 4 °C, centrifuged for 15 min ([…]), and then the supernatant was checked by HPLC using a Phenomenex Jupiter column (4 μm Proteo 90 Å 250 × 21.20 mm) with a linear gradient of MeCN (0.1% TFA) and H2O (0.1% TFA) from 10 to 90% in 20 min and with a flow rate of 1 mL/min.[73] The percentage of the nondegraded peptide was calculated by integrating the peak area of each HPLC chromatogram. Data points are the mean ± SD of three different experiments.

Setting [2] is: MDR clinical isolate 13164462, broth microdilution, 16–18 h at 37 °C, three identical readings of four independent experiments.
Where [3] appears, read: MDR clinical isolate 13667073, broth microdilution, 16–18 h at 37 °C, three identical readings of four independent experiments.

By MIC is commonly meant the least concentration at which growth counts as inhibited. The share remaining is what is left of the initial amount, in per cent. Read a high share remaining as greater stability.

In brackets after ≈: the same amount, converted by molar mass. Read-outs that look alike come from different tables or passages of the source. Where a SMILES comes first, the peptide text is derived from it. [ ]: non-standard residue; d: D form. Aib = CC(C)(N)C(=O)O

In the case of `CC[C@H](C)[C@H](NC(=O)CN)C(=O)N[C@@H](Cc1ccccc1)C(=O)N[C@@H](CO)C(=O)N[C@@H](CCCCN)C(=O)N[C@@H](CC(C)C)C(=O)N[C@@H](C)C(=O)N1CCC[C@H]1C(=O)N[C@@H](CCCCN)C(=O)N[C@@H](CCCCN)C(=O)N[C@H](C(=O)N[C@@H](CCCCN)C(=O)N[C@@H](CC(N)=O)C(=O)N[C@@H](CC(C)C)C(=O)N[C@@H](CC(C)C)C(=O)N[C@H](C(=O)N[C@@H](CO)C(=O)NCC(=O)N[C@@H](CC(C)C)C(=O)N[C@@H](CCCCN)C(=O)NCC(N)=O)[C@@H](C)CC)[C@@H](C)CC` [peptide 3] (H-GIFSKLAPKKIKNLLISGLKG-NH2), the minimum inhibitory concentration (MIC) against A. baumannii ATCC 19606 is 1.56 µM (≈ 3.47 µg/mL); against E. coli ATCC 25922, 3.12 µM (≈ 6.94 µg/mL); against P. aeruginosa ATCC 25853, 6.25 µM (≈ 13.9 µg/mL); against S. aureus ATCC 25923 (ATCC 25923), greater than 100 µM; with S. aureus MDR #1 (MDR #1), greater than 100 µM; against S. aureus MDR #2 (MDR #2), greater than 100 µM. In addition, the MIC is greater than 100 µM against S. aureus MDR #3 (MDR #3), greater than 100 µM with S. aureus MDR #4 and 6.25 µM (≈ 13.9 µg/mL) in data set [1].

For `CC[C@H](C)[C@H](NC(=O)CN)C(=O)N[C@@H](Cc1ccccc1)C(=O)N[C@@H](CO)C(=O)N[C@@H](CCCCN)C(=O)N[C@@H](CC(C)C)C(=O)N[C@@H](C)C(=O)NCC(=O)N[C@@H](CCCCN)C(=O)N[C@@H](CCCCN)C(=O)N[C@H](C(=O)N[C@@H](CCCCN)C(=O)N[C@@H](CC(N)=O)C(=O)N[C@@H](CC(C)C)C(=O)N[C@@H](CC(C)C)C(=O)N[C@H](C(=O)N[C@@H](CO)C(=O)NCC(=O)N[C@@H](CC(C)C)C(=O)N[C@@H](CCCCN)C(=O)NCC(N)=O)[C@@H](C)CC)[C@@H](C)CC` [peptide 1] (H-GIFSKLAGKKIKNLLISGLKG-NH2), the MIC is 1.56 µM (≈ 3.41 µg/mL) against A. baumannii ATCC 19606; 1.56 µM (≈ 3.41 µg/mL) against E. coli ATCC 25922; 3.12 µM (≈ 6.82 µg/mL) against P. aeruginosa ATCC 25853; greater than 100 µM in the data set with S. aureus ATCC 25923 (ATCC 25923); greater than 100 µM against S. aureus MDR #1 (setting [2]); 100 µM (≈ 218 µg/mL) in the data set with S. aureus MDR #2 (MDR #2). Besides, the MIC in the data set with S. aureus MDR #3 (setting [3]) was 100 µM (≈ 218 µg/mL); in the data set on S. aureus MDR #4, greater than 100 µM; in data set [1] it was 3.12 µM (≈ 6.82 µg/mL). Further, the “lethal dose causing 50% killing (LD50)” value in the data set with HaCaT cells is greater than 50 µM.

In the case of `CC[C@H](C)[C@H](NC(=O)CN)C(=O)N[C@@H](Cc1ccccc1)C(=O)N[C@@H](CO)C(=O)N[C@@H](CCCCN)C(=O)N[C@@H](CC(C)C)C(=O)N[C@@H](C)C(=O)NC(C)(C)C(=O)N[C@@H](CCCCN)C(=O)N[C@@H](CCCCN)C(=O)N[C@H](C(=O)N[C@@H](CCCCN)C(=O)N[C@@H](CC(N)=O)C(=O)N[C@@H](CC(C)C)C(=O)N[C@@H](CC(C)C)C(=O)N[C@H](C(=O)N[C@@H](CO)C(=O)NCC(=O)N[C@@H](CC(C)C)C(=O)N[C@@H](CCCCN)C(=O)NCC(N)=O)[C@@H](C)CC)[C@@H](C)CC` [peptide 2] (H-GIFSKLA[Aib]KKIKNLLISGLKG-NH2), the MIC against A. baumannii ATCC 19606 came to 0.78 µM (≈ 1.73 µg/mL); against E. coli ATCC 25922 it was 0.78 µM (≈ 1.73 µg/mL); with P. aeruginosa ATCC 25853 it was 3.12 µM (≈ 6.9 µg/mL); with S. aureus ATCC 25923 (broth microdilution, Muller Hinton, 16–18 h at 37 °C, three identical readings of four independent experiments), 12.5 µM (≈ 27.7 µg/mL); with S. aureus MDR #1 (setting [2]), 12.5 µM (≈ 27.7 µg/mL); in the data set with S. aureus MDR #2 (MDR clinical isolate 13165968, broth microdilution, 16–18 h at 37 °C, three identical readings of four independent experiments), 12.5 µM (≈ 27.7 µg/mL). For the same molecule, the minimal inhibitory concentration (MIC) was determined as 12.5 µM (≈ 27.7 µg/mL) in the data set on S. aureus MDR #3 (setting [3]), 6.25 µM (≈ 13.8 µg/mL) in the data set on S. aureus MDR #4 and 0.78 µM (≈ 1.73 µg/mL) in data set [1]. The molecule further had an amount remaining at 1 h, 200 μM in the data set “in vitro” of roughly 90%. In “in vitro”, this molecule registered a fraction remaining at 3 h, 200 μM of roughly 75%. Further, the fraction remaining at 4 h, 200 μM in “in vitro” is roughly 65%. The molecule further displayed a share remaining at 5 h, 200 μM in the data set “in vitro” of roughly 40%. In the data set “in vitro”, this molecule returned an amount remaining at 16 h, 200 μM of roughly 40%. In “in vitro”, this molecule returned a fraction remaining at 24 h, 200 μM of roughly 15%.

On to `CC[C@H](C)[C@H](NC(=O)CN)C(=O)N[C@@H](Cc1ccccc1)C(=O)N[C@@H](CO)C(=O)N[C@@H](CCCCN)C(=O)N[C@@H](CC(C)C)C(=O)N[C@@H](C)C(=O)N1CCC[C@@H]1C(=O)N[C@@H](CCCCN)C(=O)N[C@@H](CCCCN)C(=O)N[C@H](C(=O)N[C@@H](CCCCN)C(=O)N[C@@H](CC(N)=O)C(=O)N[C@@H](CC(C)C)C(=O)N[C@@H](CC(C)C)C(=O)N[C@H](C(=O)N[C@@H](CO)C(=O)NCC(=O)N[C@@H](CC(C)C)C(=O)N[C@@H](CCCCN)C(=O)NCC(N)=O)[C@@H](C)CC)[C@@H](C)CC` [peptide 4] (H-GIFSKLA[dP]KKIKNLLISGLKG-NH2), for which the minimum inhibitory concentration (MIC) against A. baumannii ATCC 19606 was 12.5 µM (≈ 27.8 µg/mL); in the data set with E. coli ATCC 25922 it was 6.25 µM (≈ 13.9 µg/mL); against P. aeruginosa ATCC 25853, 25 µM (≈ 55.6 µg/mL); against S. aureus ATCC 25923 (ATCC 25923), greater than 100 µM; in the data set on S. aureus MDR #1 (MDR #1), greater than 100 µM; against S. aureus MDR #2 (MDR #2), greater than 100 µM. Moreover, the values for the MIC (against S. aureus MDR #3 (MDR #3); against S. aureus MDR #4; in data set [1]) were greater than 100 µM, greater than 100 µM and 12.5 µM (≈ 27.8 µg/mL), respectively.

Values taken from paper PMC11250030, “Strategic Single-Residue Substitution in the Antimicrobial Peptide Esc(1–21) Confers Activity against Staphylococcus aureus, Including Drug-Resistant and Biofilm Phenotype” (ACS Infectious Diseases, 2024).
